Tests used:
Influenza A virus = experiment: Antiviral activity against Influenza A virus (A/Virginia/ATCC1/2009(H1N1)) infected in MDCK cells assessed as inhibition of virus-induced cytopathicity after 48 hrs by crystal violet staining based method; assay type: functional, organism-based
[1] = Cytotoxicity against MDCK cells assessed as reduction in cell viability after 48 hrs by crystal violet staining based method; design: species or system Canis lupus familiaris; settings: dog
H3N2 subtype = experiment: Antiviral activity against Influenza A virus (A/Aichi/2/1968(H3N2)) infected in MDCK cells assessed as inhibition of virus-induced cytopathicity after 48 hrs by crystal violet staining based method; assay type: functional, organism-based
Staphylococcus aureus = experiment: Antibacterial activity against methicillin-resistant Staphylococcus aureus CCARM 3090 at 10 mg/ml after 20 hrs by agar diffusion method; assay type: functional; settings: CCARM 3090, 20 h, read-out: IZ

SMILES	IC50 (Influenza A virus) [µM]	CC50 at 48 h [1] [µM]	IC50 (H3N2 subtype) [µM]	zone of inhibition at 10000 µg/mL (Staphylococcus aureus) [mm]
NC(=O)c1ncn([C@@H]2O[C@H](CO)[C@@H](O)[C@H]2O)n1 [RIBAVIRIN]	66.7	1370	99.6	
Cc1c(O)c(CCCCC(C)C)coc1=O	132	1290	150	11
COc1c(CCCC(C)C)coc(=O)c1C	58.8	2000	95	0
CCC(C)CCCCc1coc(=O)c(C)c1O (stereo not given)	79.3	1620	82.3	18
CCCCCCCc1coc(=O)c(C)c1O	74.3	2200	74.3	11
CCCCCCCc1coc(=O)c(C)c1OC	30.6	2230	45.3	0
CCC(C)CCCCc1coc(=O)c(C)c1OC (stereo not given)	68.4	1550	72.8	0
Cc1c(O)c(CCCC(C)C)coc1=O	60.9	1240	104	0
COc1c(CCCCC(C)C)coc(=O)c1C	64.9	1880	63.9	6

Source: ChEMBL document CHEMBL4229464, “Generation of methylated violapyrones with improved anti-influenza A virus activity by heterologous expression of a type III PKS gene in a marine Streptomyces strain” (Bioorg Med Chem Lett, 2018)
